From paper PMC8280143, “A novel dephosphorylation targeting chimera selectively promoting tau removal in tauopathies” (Signal Transduction and Targeted Therapy, 2021) come the findings set out here.

“Also recorded” adds a separate entry of the source.

For experiment [1], the system named is human tau (hTau). Description: Immunofluorescence staining of phospho-tau in primary neurons with hTau overexpression. The experiment is classed as cell-based. The following applies: DEPTAC 200 μM for 24 h; *p < 0.05, **p < 0.01, n = 3 cell wells. As to the method: Lentivirus LV-EF1α-hTau-GFP (3.50E+8 vg/mL) was packaged by OBiO (Shanghai, China) and used for hTau-overexpression (fused with GFP) in cultured primary rat neurons. AAV-CaMKIIα-Cre (diluted to 5.21E + 07 vg/mL) and AAV-EF1α-DIO-mCherry (3.24E + 12 vg/mL) were obtained from BrainVTA (Wuhan, China) and co-injected (1:1 vol/vol) for sparse labeling of dorsal DG neurons. Doxycycline was purchased from Energy Chemical (Shanghai, China). Rabbit polyclonal DEPTAC antibody was prepared by Daian Biotechnology (Wuhan, China). All other reagents including MG132 were purchased from Sigma-Aldrich (USA), unless otherwise specified.
Primary hippocampal neurons were prepared from E12–E15 days SD rat embryos. Briefly, pregnant rats were acutely executed, hippocampus was dissected on ice and gently minced in DME/F12 (Hyclone) then suspended in 0.125% (vol/vol) trypsin solution at 37 °C for 20 min. Enzymatic activity was stopped by fetal bovine serum. Neurons were initially kept in 10% FBS-containing DME/F12 for 4–6 h, and subsequently cultured in Neurobasal (Hyclone) with 2% B27, 1% glutamax and 1% penicillin–streptomycin (Thermo Fisher Scientific) in dishes pre-coated with 100 μg/mL poly-D-lysine. Serum was gradually removed by replacing half of the medium for each time within the following 2 days. […]

The test system of experiment [2] is human tau N-terminal 1–368 fragment (hTau-N368). Put plainly: Hippocampal phosphorylated and total tau in dox-treated Tau368 mice. In kind it is in vivo, mouse. The procedure:
(§1) Mice weighting 20–30 g were anesthetized with 1% pentobarbital sodium (35 mg/kg), and fixed in a stereotaxic instrument (RWD). The scalp was sterilized with iodophors and 75% ethanol, and incised along the skull midline. Holes were drilled. Adeno-associated virus or DEPTAC was injected into the dorsal DG (posterior 1.9 mm, lateral ±1.1 mm from the bregma, ventral −2.0 from the skull) or lateral ventricle (posterior 0.22 mm, lateral ±1.0 mm from the bregma, ventral −2.5 from the skull), respectively, using an automatic microinjection system (World Precision Instruments, USA) at a rate of 0.05 μL/min. The needle syringe was left in place for 5 min before withdrawal. The skin was sutured and sterilized with iodophors. Mice were placed on thermos tank for analepsia.
(§2) For 2-month male C57BL/6 mice, 10 mM FITC-labeled or unlabeled-DEPTAC were directly injected through the tail vein or lateral ventricle for the evaluation of BBB-penetrability. For 9-month 3×Tg AD mice or Tau368 (20–30 g body weight), unlabeled-DEPTAC (5 mM, 1 μL for each time) was delivered for once into the lateral ventricle through direct stereotaxic injection, or repeatedly administrated through guiding cannulas (RWD, Shenzhen, China) implanted into the lateral ventricle once every 3 days for a consecutive month to test its dephosphorylation efficiency. Mice were restricted in a custom designed device and stayed awake during drug administration, and sacrificed at 24 h post the single or last DEPTAC administration.
(§3) Cultured cells or hippocampus tissues were collected on ice, and homogenized with RIPA lysis buffer containing 50 mM Tris-HCl, 100 mM NaCl, 1% Triton X-100, 5 mM EDTA, and 1:100 PMSF, and then centrifuged at 12,000 × g for 20 min. The supernatant was collected for the analysis of soluble proteins. In some experiments, the pellets were further incubated with 8% SDS buffer at 37 °C and then ultrasound for 60 times to reach a complete resuspension for the analysis of insoluble tau. Protein concentration was measured through BCA assays (Thermo Fisher). Equal amount of protein from each sample were separated in SDS-PAGE gels, and then transferred onto nitrocellulose or 0.22 μm polyvinylidene fluoride membranes (Merck Millipore). The membranes were blocked with 5% BSA, and incubated in turn with primary and horseradish peroxidase-conjugated secondary antibodies: pS199-Tau (44734G, Invitrogen, 1:2000), pT205-Tau (11108-1, Signalway, 1:2000), pS396-Tau (11102, Signalway, 1:2000), pS404-Tau (11112, Signalway, 1:2000), AT8 (MN1020, Thermo Fisher, 1:1000), Tau5 (ab80579, Abcam, 1:1000), Tau46 (T9450, Sigma, 1:1000), PP2A-Bα (4953, Cell signaling, 1:1000), Phospho-Ser/Thr (ab17464, Abcam1:1000), Ubiquitin (ab7254, Abcam, 1:1000), MAP2 (AB5622, Millipore, 1:2000), hTau-N368 (a generous gift from Prof. Keqiang Ye, Emory University School of Medicine, 1:1000), DEPTAC (developed by Daian Biotechnology, Wuhan, China, 1:500), β-actin (ab6276, Abcam, 1:2000). HRP-conjugated goat anti-rabbit IgG (A0208, Beyotime, 1:3000), HRP-conjugated goat anti-mouse IgG (A0216, Beyotime, 1:3000). Blots were visualized using ECL luminol reagent (P0018FS, Beyotime), and quantified using ImageJ software.

Experiment [3] concerns endogenous mouse tau. Description: Hippocampal endogenous mouse tau in NW-administrated Tau368 mice. In kind it is in vivo. The conditions noted are these: 30 μg total protein. As to the method: as §1, §2, §3
[4] abbreviates: DEPTAC for a consecutive month after stopping dox, **p < 0.01, n = 3 mice.
Where [5] appears, read: dox kept on, DEPTAC i.c.v. by guiding cannula once every three days for a consecutive month, 10 μg total protein, *p < 0.05, n = 3–4.
Where [6] appears, read: hippocampus of Tau368 mice, 24 h of post-DEPTAC administration.
Setting [7] is: NW Tau368 mice (no dox), n = 3–4.

Regarding “(1) YQQYQDATADEQG, originates from the porcine β-tubulin 422–434 for recognizing and binding tau proteins.[5],[6] (2) GSGS, a linker for increasing the flexibility of the peptide.[15] (3) KKVAVVRTPPKSP, for recruiting PP2A-Bα,[16] and (4) RRRRRRRR [DEPTAC, DEPhosphorylation TArgeting Chimera; 38 amino acid residues, C185H314N72O56]”, the “averaged immunoreactive (IR) intensity of phospho-tau” value in experiment [1] is on record as “reduced”. For the same substance, in experiment [2] (setting [4]), the “hippocampal phospho-tau after stopping the dox” value is recorded as “reduced; also recorded: downregulated” and the “hippocampal total tau after stopping the dox” value is recorded as “reduced; also recorded: downregulated”. In experiment [2] (discussion, compared with tau knock-out or siRNA knock-down), the “degree of tau reduction by DEPTAC” value was “far less than tau knock-out or siRNA-mediated knock-down”. In experiment [2] (setting [5]), the “hippocampal phospho-tau, dox kept on” value is recorded as “significantly reduced; also recorded: effectively facilitated the dephosphorylation” and the “hippocampal total tau, dox kept on” value is given as “significantly reduced; also recorded: effectively facilitated the dephosphorylation as well as the degradation of tau”. For the same substance, the hippocampal phosphorylated tau entry in experiment [2] (dox-treated Tau368 mice, 5 mM, i.c.v., for a consecutive month / for once, 12–72 h post injection, n = 3–4) is “effective in reducing; also recorded: reduced phosphorylated and total tau prominently”. Besides, in experiment [2] (setting [6]), the “RIPA lysis buffer-insoluble tau” value was “tend to be decreased” and the “RIPA lysis buffer-soluble tau” value is “tend to be decreased”. Besides, in experiment [3] (setting [7]), the “endogenous mouse tau phosphorylation at Ser199” value was “limited effect”, the “endogenous mouse tau phosphorylation at Ser396” value was “significantly downregulate”, the “endogenous mouse tau phosphorylation at Ser404” value was “significantly downregulate” and the “endogenous mouse tau phosphorylation at Thr205” value is “significantly downregulate”. In experiment [3] (setting [7]), the “endogenous mouse tau, AT8 epitope” value is on record as “limited effect” and the “endogenous mouse total tau” value was “limited effect”. Moreover, the “efficiency of DEPTAC on mouse tau” value in experiment [3] (NW Tau368 mice, overall, compared with dox group) is “relatively limited”.
